The text below walks through data of article PMC4254624 (Biochemical and biophysical research communications, 2014).

Experiment [1] deals with T1, EcSecA intrinsic ATPase (Escherichia coli, UniProt P10408). Kind of experiment: Intrinsic ATPase activity assay of EcSecA. Format: biochemical. As to conditions: for Ki: read-out: apparent Ki, intrinsic ATPase; for Km / Vmax: Intrinsic.
In experiment [2] the target is EcSecA (Escherichia coli, UniProt P10408). The experiment in a line: SecA ion channel activity in Xenopus oocytes. As to conditions: for IC50: read-out: IC50 inhibition of SecA channel activity in oocytes, EcSecA. Format: cell-based.
Chain of EcSecA (P10408 whole entry): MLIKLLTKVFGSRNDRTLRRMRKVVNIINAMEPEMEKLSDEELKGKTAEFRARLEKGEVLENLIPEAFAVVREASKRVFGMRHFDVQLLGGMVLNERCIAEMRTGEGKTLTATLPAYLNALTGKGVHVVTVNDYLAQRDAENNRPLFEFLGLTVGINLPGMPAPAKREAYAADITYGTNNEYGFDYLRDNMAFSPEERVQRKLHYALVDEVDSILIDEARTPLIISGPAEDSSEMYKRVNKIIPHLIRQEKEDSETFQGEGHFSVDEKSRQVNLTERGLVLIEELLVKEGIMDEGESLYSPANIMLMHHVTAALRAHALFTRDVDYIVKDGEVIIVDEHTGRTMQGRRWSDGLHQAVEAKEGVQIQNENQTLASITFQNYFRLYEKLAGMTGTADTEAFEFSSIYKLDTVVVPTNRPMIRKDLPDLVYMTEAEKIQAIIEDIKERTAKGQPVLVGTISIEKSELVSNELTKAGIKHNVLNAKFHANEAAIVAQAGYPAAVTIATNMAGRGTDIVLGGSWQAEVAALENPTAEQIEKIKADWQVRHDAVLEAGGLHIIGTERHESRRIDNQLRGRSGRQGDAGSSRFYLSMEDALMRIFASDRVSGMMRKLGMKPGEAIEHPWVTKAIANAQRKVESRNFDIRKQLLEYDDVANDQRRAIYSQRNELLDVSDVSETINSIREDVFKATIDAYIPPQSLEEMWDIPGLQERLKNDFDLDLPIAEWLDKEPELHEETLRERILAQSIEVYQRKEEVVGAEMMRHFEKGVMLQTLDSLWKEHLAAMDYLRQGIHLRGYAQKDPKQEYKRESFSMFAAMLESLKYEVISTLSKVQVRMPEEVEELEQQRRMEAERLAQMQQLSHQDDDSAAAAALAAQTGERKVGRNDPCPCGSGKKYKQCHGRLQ
Experiment [3] deals with EcSecA translocation ATPase (Escherichia coli, UniProt P10408). The experiment in a line: Translocation ATPase activity assay of EcSecA with BA13 membrane and proOmpA. Type of experiment: biochemical. As to conditions: for Km / Vmax: Translocation.
Chain of EcSecA translocation ATPase (P10408 whole entry): as above
For experiment [4], the target named is BsSecA intrinsic ATPase (Bacillus subtilis, UniProt P28366). Kind of experiment: Intrinsic ATPase activity assay of BsSecA. Type of experiment: biochemical.
Chain of BsSecA intrinsic ATPase (P28366 whole entry): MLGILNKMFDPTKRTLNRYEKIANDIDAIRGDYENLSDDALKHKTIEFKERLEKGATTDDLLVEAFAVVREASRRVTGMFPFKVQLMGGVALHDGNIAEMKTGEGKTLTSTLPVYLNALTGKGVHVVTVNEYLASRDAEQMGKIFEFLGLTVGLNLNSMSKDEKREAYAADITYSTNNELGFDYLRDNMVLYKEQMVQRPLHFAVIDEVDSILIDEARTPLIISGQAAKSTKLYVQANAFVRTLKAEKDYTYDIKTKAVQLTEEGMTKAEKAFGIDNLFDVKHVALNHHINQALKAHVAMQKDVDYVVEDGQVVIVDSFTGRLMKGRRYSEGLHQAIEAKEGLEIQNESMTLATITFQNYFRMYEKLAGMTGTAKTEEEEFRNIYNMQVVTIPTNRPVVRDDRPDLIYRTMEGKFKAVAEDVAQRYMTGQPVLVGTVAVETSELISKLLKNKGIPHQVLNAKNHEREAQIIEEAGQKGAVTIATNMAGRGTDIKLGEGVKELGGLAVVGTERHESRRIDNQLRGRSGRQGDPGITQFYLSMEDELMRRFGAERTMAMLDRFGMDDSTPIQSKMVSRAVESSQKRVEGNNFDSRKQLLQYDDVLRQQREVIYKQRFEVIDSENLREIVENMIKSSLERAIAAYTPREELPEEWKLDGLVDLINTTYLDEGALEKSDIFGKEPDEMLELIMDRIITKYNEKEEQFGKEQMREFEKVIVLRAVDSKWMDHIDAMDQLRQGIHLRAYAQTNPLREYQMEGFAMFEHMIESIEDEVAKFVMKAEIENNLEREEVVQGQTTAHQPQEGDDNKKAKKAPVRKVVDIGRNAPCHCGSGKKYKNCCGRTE
In experiment [5] the target is EcSecA membrane ATPase (Escherichia coli, UniProt P10408). The experiment in a line: Membrane ATPase activity assay of EcSecA with urea-washed BA13 membrane. Type of experiment: biochemical.
Chain of EcSecA membrane ATPase (P10408 whole entry): as the sequence (P10408 whole entry) above
Experiment [6] addresses BsSecA (Bacillus subtilis, UniProt P28366). Kind of experiment: SecA ion channel activity in Xenopus oocytes. Type of experiment: cell-based. The following applies: for IC50: read-out: IC50 inhibition of SecA channel activity in oocytes, BsSecA.
The target in experiment [7] is PaSecA (Pseudomonas aeruginosa, UniProt Q9LCT3). The experiment in a line: SecA ion channel activity in Xenopus oocytes. Format: cell-based, P. aeruginosa. As to conditions: for IC50: read-out: IC50 inhibition of SecA channel activity in oocytes, PaSecA.
Chain of PaSecA (Q9LCT3 whole entry): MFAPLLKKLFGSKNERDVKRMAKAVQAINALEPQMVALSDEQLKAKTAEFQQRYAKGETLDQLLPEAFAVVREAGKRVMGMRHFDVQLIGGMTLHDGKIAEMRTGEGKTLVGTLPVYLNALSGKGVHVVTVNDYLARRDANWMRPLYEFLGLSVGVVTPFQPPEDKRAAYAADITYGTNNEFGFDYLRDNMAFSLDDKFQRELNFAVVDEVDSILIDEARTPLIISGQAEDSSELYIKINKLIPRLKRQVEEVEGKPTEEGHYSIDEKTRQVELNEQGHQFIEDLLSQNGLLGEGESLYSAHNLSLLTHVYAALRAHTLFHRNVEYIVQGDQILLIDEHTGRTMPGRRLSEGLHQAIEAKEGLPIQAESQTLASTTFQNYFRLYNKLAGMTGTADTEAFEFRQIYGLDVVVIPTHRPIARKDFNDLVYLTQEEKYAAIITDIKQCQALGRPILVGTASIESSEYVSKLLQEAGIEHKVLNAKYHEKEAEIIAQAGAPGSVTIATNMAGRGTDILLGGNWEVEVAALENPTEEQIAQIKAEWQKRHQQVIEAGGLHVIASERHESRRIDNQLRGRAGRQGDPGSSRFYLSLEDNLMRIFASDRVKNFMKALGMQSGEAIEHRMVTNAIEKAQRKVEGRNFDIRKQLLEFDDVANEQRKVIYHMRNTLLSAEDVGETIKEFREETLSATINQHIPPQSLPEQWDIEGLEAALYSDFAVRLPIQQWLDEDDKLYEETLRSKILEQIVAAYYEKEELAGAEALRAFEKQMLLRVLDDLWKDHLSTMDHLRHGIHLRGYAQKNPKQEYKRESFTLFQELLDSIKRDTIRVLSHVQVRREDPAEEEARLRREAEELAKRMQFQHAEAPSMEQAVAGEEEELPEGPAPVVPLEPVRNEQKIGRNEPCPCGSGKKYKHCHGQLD
Experiment [8] addresses T1, EcSecA intrinsic ATPase. The following applies: cited from earlier work.
Setting [9] is: high ATP concentrations (above 1 mM), non-competitive.
Where [10] appears, read: low ATP concentrations (below 0.6 mM), competitive.

Read-outs that look alike come from different tables or passages of the source.

Chain of BsSecA (P28366 whole entry): as the sequence (P28366 whole entry) above
T1 sequence (P10408 whole entry): as the sequence (P10408 whole entry) above

With `O.O=C([O-])c1ccccc1-c1c2cc(I)c(=O)c(I)c-2oc2c(I)c([O-])c(I)cc12.[Na+].[Na+]` [EB, Erythrocin B], the figures for the “mechanism of inhibition of intrinsic ATPase versus ATP” value in experiment [1] (high ATP concentrations) and in experiment [1] (low ATP concentrations) were “non-competitively” and “competitively”, respectively. Also, the Ki in experiment [1] (setting [9]) is 34.3 ± 8.08 µM; in experiment [1] (setting [10]), 4.06 ± 0.32 µM.
As a reminder, the IC50 is the concentration needed to halve the response being measured. Usually Km stands for the substrate concentration at which the rate is half of its maximum. In the case of `O=C1OC2(c3cc(I)c(O)c(I)c3Oc3c2cc(I)c(O)c3I)c2c(Cl)c(Cl)c(Cl)c(Cl)c21` [RB, Rose Bengal], the “mechanism of inhibition of channel activity” value in experiment [2] (EcSecA-SecYEG-SecDF•YajC liposomes in oocytes) is on record as “non-competitive inhibition pattern”. Besides, the “mechanism of inhibition of liposome channel activity with ATP” value in experiment [2] (EcSecA-liposomes in oocytes), in experiment [6] (BsSecA-liposomes in oocytes) and in experiment [7] (PaSecA-liposomes in oocytes) was “non-competitive inhibition” each time. For the same molecule, the IC50 in experiment [2] (BA13 memb) amounted to 4.7 ± 0.1 µM; in experiment [2] (L+SecYEG +SecDF•C), 3.8 ± 0.3 µM; in experiment [2] (RE-13 memb +SecYEG-DF•C), 4.4 ± 0.1 µM; in experiment [6] (BA13 memb), 5.8 ± 0.3 µM; in experiment [6] (L+SecYEG +SecDF•C), 4.5 ± 0.2 µM; in experiment [6] (RE-13 memb +SecYEG-DF•C), 5.2 ± 0.3 µM. Moreover, the IC50 in experiment [7] (BA13 memb) was 5.1 ± 0.2 µM; in experiment [7] (L+SecYEG +SecDF•C), 2 ± 0.3 µM; in experiment [7] (Lipo), 0.3 ± 0.2 µM; in experiment [7] (RE-13 memb +SecYEG), 5.1 ± 0.2 µM; in experiment [7] (RE-13 memb +SecYEG-DF•C) it was 5.1 ± 0.1 µM. Also, the Km was 180 µM in experiment [3] (RB 0.75 μM); 180 µM in experiment [3] (RB 1 μM); 310 µM in experiment [5] (Membrane, RB 4 μM); 1680 µM in experiment [1] (High [ATP], RB 20 μM); 1680 µM in experiment [1] (High [ATP], RB 40 μM); 250 µM in experiment [1] (Low [ATP], RB 20 μM). Also, the Km in experiment [1] (Low [ATP], RB 40 μM) was 460 µM. Further, the Vmax in experiment [3] (RB 0.75 μM) worked out at 23.42 molePi·moleSecA^−1min^−1; in experiment [3] (RB 1 μM) it was 15.06 molePi·moleSecA^−1min^−1; in experiment [5] (Membrane, RB 2 μM) it was 13.61 molePi·moleSecA^−1min^−1; in experiment [5] (Membrane, RB 4 μM), 8.18 molePi·moleSecA^−1min^−1; in experiment [1] (High [ATP], RB 20 μM), 6.08 molePi·moleSecA^−1min^−1; in experiment [1] (High [ATP], RB 40 μM) it was 3.99 molePi·moleSecA^−1min^−1. Further, the Vmax is 3.07±0.16 molePi·moleSecA^−1min^−1 in experiment [1] (Low [ATP], RB 20 μM) and 3.07±0.16 molePi·moleSecA^−1min^−1 in experiment [1] (Low [ATP], RB 40 μM). In experiment [3] (broad range of ATP concentrations), the “mechanism of inhibition of translocation ATPase” value was “only non-competitively”. The Ki in experiment [3] (read-out: Ki, translocation ATPase, non-competitive, broad range of ATP concentrations) was found to be 0.43 ± 0.02 µM; in experiment [5] (read-out: average Ki, membrane ATPase, mixed-mechanism) it was 1.42 ± 0.22 µM; in experiment [1] (setting [9]) it was 57.1 ± 3.37 µM; in experiment [1] (setting [10]), 22.4 ± 3.33 µM. For the same molecule, in experiment [4], the “mechanism of inhibition of intrinsic ATPase” value is “two-site inhibition depending on the concentration of ATP”. Moreover, the “mechanism of inhibition of membrane ATPase” value in experiment [5] is “mixed-mechanism”. Besides, the “mechanism of inhibition of intrinsic ATPase versus ATP” value is “non-competitive inhibitor” in experiment [1] (high ATP concentrations) and “competitive inhibitor” in experiment [1] (low ATP concentrations).
In the case of `[N-]=[N+]=[N-].[Na+]` [azide, sodium azide], the “effect on SecA intrinsic ATPase activity” value in experiment [8] is reported as “does not affect”.
